Reference: PMC6017357, “In Vitro Inhibitory Effects of Synthetic Cannabinoid EAM-2201 on Cytochrome P450 and UDP-Glucuronosyltransferase Enzyme Activities in Human Liver Microsomes” (Molecules : A Journal of Synthetic Chemistry and Natural …, 2018)

Target: T1, CYP2C8 (Homo sapiens, UniProt P10632)
T1 sequence (P10632 1-490): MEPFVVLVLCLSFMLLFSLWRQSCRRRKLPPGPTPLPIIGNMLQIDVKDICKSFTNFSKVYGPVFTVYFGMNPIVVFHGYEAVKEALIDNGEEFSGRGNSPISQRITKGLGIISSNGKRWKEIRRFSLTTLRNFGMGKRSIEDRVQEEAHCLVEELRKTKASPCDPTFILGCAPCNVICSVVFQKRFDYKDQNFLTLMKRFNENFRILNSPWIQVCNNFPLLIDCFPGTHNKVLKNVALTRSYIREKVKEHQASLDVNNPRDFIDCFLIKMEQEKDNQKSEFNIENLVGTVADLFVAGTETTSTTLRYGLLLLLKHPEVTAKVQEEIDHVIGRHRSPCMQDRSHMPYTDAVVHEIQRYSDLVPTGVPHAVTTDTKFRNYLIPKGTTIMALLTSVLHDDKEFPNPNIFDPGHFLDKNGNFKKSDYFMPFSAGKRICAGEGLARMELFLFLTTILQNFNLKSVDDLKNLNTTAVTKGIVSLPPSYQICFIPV
Assay: CYP2C8-catalyzed amodiaquine N-deethylation in human liver microsomes (IC50 and time-dependent inhibition)
Type: in vitro ADME
Set-up: from tissue; host or cells: ultrapooled human liver microsomes
Procedure: The inhibitory potential (IC50 values) of EAM-2201 on CYP1A2, CYP2A6, CYP2C8, CYP2C9, CYP2C19, CYP2D6 and CYP3A4 were evaluated using ultrapooled human liver microsomes and a cocktail of seven CYP substrates followed by LC-tandem mass spectrometry (LC-MS/MS) as previously described. Each incubation mixture was prepared in a total volume of 100 µL as follows: pooled human liver microsomes (5.2 pmol CYP), 1.0 mM NADPH, 10 mM magnesium chloride, 50 mM potassium phosphate buffer (pH 7.4), various concentrations of EAM-2201 in DMSO (final concentrations of 0.1–50 µM, 0.5% DMSO) and a cocktail of seven CYP probe substrates in 50% acetonitrile (0.5% acetonitrile), including 50 µM phenacetin, 2.5 µM coumarin, 2.0 µM amodiaquine, 10 µM diclofenac, 100 µM [S]-mephenytoin, 5 µM bufuralol and 2.5 µM midazolam in 50% acetonitrile. After a 3-min preincubation at 37 °C, the reactions were initiated by adding NADPH and incubation proceeded for 15 min at 37 °C in a shaking water bath. The reactions were stopped by adding 100 µL of ice-cold methanol containing internal standards (^13C2,^15N-acetaminophen for acetaminophen and N-desethylamodiaquine; d9-1′-hydroxybufuralol for 4′-hydroxydiclofenac, 7-hydroxycoumarin, 4′-hydroxymephenytoin, 1′-hydroxybufuralol and 1′-hydroxy-midazolam). The incubation mixtures were centrifuged at 13,000× g for 4 min at 4 °C and 50 µL of each supernatant was diluted in 50 µL of water. Aliquots (5 µL) of the diluted supernatants were analyzed using LC-MS/MS. All assays were performed in triplicate and the mean values were used in calculations. […] Each reaction was initiated by adding the seven-CYP probe substrate cocktail described above.
The time-dependent inhibitory effects of EAM-2201 on CYP2C8, CYP2C9, CYP2C19 and CYP3A4 activities in ultrapooled human liver microsomes were evaluated using time- and concentration-dependent inhibition assays. Ultrapooled human liver microsomes (26.0 pmol CYP) were pre-incubated with various concentrations of EAM-2201 in DMSO (0.5% DMSO) in 50 mM potassium phosphate buffer (pH 7.4) in the presence of NADPH for predetermined time periods: 5–15 min for CYP2C8 activity, 5–20 min for CYP2C9 activity and 15–40 min for CYP2C19 and CYP3A4 activities. […] Aliquots (5 µL) of the diluted supernatants were analyzed using LC-MS/MS.
The metabolites formed from CYP substrates were simultaneously quantified using our previously described LC-MS/MS method. […]

CCc1ccc(C(=O)c2cn(CCCCCF)c3ccccc23)c2ccccc12 [EAM-2201, (4-ethyl-1-naphthalenyl)[1-(5-fluoropentyl)-1H-indol-3-yl]-methanone]
IC50: 3 µM | inactivation efficiency (kinact/Ki), CYP2C8 (human liver microsomes): 1953 M⁻¹ s⁻¹ | kinact (human, ultrapooled human liver microsomes, pH 7.4, probe amodiaquine (2 µM), N-deethylation, read-out: kinact, time-dependent inhibition of CYP2C8 amodiaquine N-deethylase (converted)): 0.00105 s⁻¹ | inhibition of CYP2C8-catalyzed amodiaquine N-deethylation (up to 50 µM, without 30-min preincubation, human liver microsomes): negligibly inhibited
